In paper PMC5045831 (Drugs in R&D, 2016):
Like-named read-outs stand apart in the source and are kept apart here.

Columns and labels:
[1] = cited from earlier work
[2] = cited from earlier work; remark: listed apart in the source
[3] = cited from earlier work; remark: listed apart in the source
[4] = type: in vivo, human
Evaluation of safety = type: in vivo, human; settings: single oral 50 mg with water, lemon or Seville orange juice; nine subjects
[5] = Seville orange juice, healthy volunteers
[6] = Seville orange juice compared with water

COc1cc2c(c(OC)c1OC)-c1ccc(OC)c(=O)cc1[C@@H](NC(C)=O)CC2 [colchicine]
decrease in AUC [1, 5]: 20% | decrease in Cmax [1, 5]: 24% | delay in Tmax [1, 5]: 1 h

CCOC(=O)C1=C(C)NC(C)=C(C(=O)OC)C1c1cccc(Cl)c1Cl (centres unmarked) [felopdipine]
increase in AUC ([2]; with Seville orange): 93% | increase in AUC ([2]; with grapefruit): 76%

CCCc1nn(C)c2c(=O)[nH]c(-c3cc(S(=O)(=O)N4CCN(C)CC4)ccc3OCC)nc12 [sildenafil]
change in bioavailability ([3]; co-administration of ciprofloxacin and clarithromycin): significantly increases | increase in bioavailability and AUC ([3]; with grapefruit juice, Cmax unaffected): 23% | change in Tmax [4, 6]: non-significant changes | increase in AUC0–∞ [4, 6]: 44% | increase in Cmax [4, 6]: 8% | reduction of apparent oral clearance (CL/F) [4, 6]: 30% | Tmax ([4]; male, human, plasma, po, 50 mg): ~1 h | adverse effects reported (Evaluation of safety): without reporting any adverse effect

COc1ccc2c(c1)[C@]13CCCC[C@@H]1[C@H](C2)N(C)CC3 [dextromethorphan]
change in bioavailability ([1]; with Seville orange juice, effects lasted 3 days): increased significantly
